Assay type in all cases: cell-based
One assay relates to Bac. subtilis. Description: Inhibition test (microdilution assay), inhibition of bacterial growth. The conditions noted are these: Bacillus subtilis; for inhibition at 100 µM: c = 100 μM. Here is the method:
(§1) Inhibition Test Culture media used: Müller-Hinton broth Caso agar plates Test method: Microdilution assay The test organisms are cultured overnight in […]-Honton broth at 35° C. +/-2° C. The suspension of organisms is centrifuged (5000 rev./min, 4° C.); the pellet is resuspended in fresh medium and incubated for a further 2 h. The pellet is then resuspended in 0.9% NaCl solution and the number of cells is adjusted to about 10^8 CFU/ml using standard curves. The resulting suspension is then diluted with Müller-Hinton broth to about 10^4 CFU/ml(=inoculum). Starting from the inoculum, a determination of the number of organisms is carried out by spiralling out (2×0.1 ml) a suitable dilution stage onto CASO agar plates. Test procedure: Specific concentrations of the potential inhibitors are dispensed into a 96-well microtitre assay plate, wells A1-H1remaining empty. The wells of the microtitre assay plates are inoculated with the adjusted suspension of organisms. Wells A1-H1serve as growth controls. Immediately after inoculation and after incubation of the plates for 24 h and 48 h, they are measured in a plate reader (Biotek EL 311) at 550 nm. From the crude data, the inhibition of bacterial and fungal growth is calculated in percent.
In general terms: In broth dilution the organism is exposed to a series of concentrations in liquid medium.

The test system of the next assay is Staph. aureus. Described as above. The conditions noted are these: Staphylococcus aureus; for inhibition at 100 µM: c = 100 μM. Here is the method:
as §1

The test system of another assay is Strept. pneumoniae. The assay is described as above. The conditions noted are these: Streptococcus pneumoniae; c = 100 μM. Here is the method: as §1
The test system of the next assay is HepG2. Description: Assay 1: cell growth by acid phosphatase activity. The conditions noted are these: Homo sapiens; for GI50: HepG2, acid phosphatase, substance 0.1-100 μM, 48 h and 96 h, read-out: Cell proliferation GI50: HepG2; for inhibition at up to 100 µM: HepG2, printed beside GI50 >100 μM, concentration not given, read-out: Cell proliferation: HepG2, % inhibition. Here is the method: (§2) Assay 1 Measurement of cell growth by determination of the activity of the intracellular enzyme acid phosphatase. The added substrate p-nitrophenyl phosphate is converted by acid phosphatase into p-nitrophenol, which absorbs light at 405 nm, the intensity of the yellow coloration being proportional to the number of cells. Incubation of the cell lines HEPG-2 and A549 together with the substance (0.1-100 μM) was carried out for 48 h and 96 h at 37° C. and 5% CO2.

A further assay concerns A549. Briefly: Assay 1: cell growth by acid phosphatase activity. Particulars: Homo sapiens; for GI50: A549, acid phosphatase, substance 0.1-100 μM, 48 h and 96 h, read-out: Cell proliferation GI50: A549; for inhibition at up to 100 µM: A549, printed beside GI50 >100 μM, concentration not given, read-out: Cell proliferation: A549, % inhibition. As to the method:
as §2

The test system of the next assay is Candida albicans. Description: Inhibition test (microdilution assay), inhibition of fungal growth. Particulars: read-out: Inhibition of bacterial growth: Candida albicans; for inhibition at 100 µM: c = 100 μM. Here is the method: as §1

Where only a bound is given, the exact number is not on record here.

As to `Cc1[nH]c2ccccc2c1-c1cncn1C1CCN(Cc2ccccc2)CC1` [Example 2], the inhibition at 100 µM with Bac. subtilis is 100%; with Staph. aureus, 100%; in the assay with Strept. pneumoniae it was 90%; with Candida albicans, 60%. Also, the GI50 in the assay on HepG2 and with A549 was more than 100 µM throughout. Also, the inhibition at up to 100 µM in the assay with HepG2 was 1%; with A549, 12%.

With `O[C@@H]1Cc2ccccc2C1n1cncc1-c1c[nH]c2cnc(OCc3ccccc3)cc12` (stereo partly shown) [Example 13], the inhibition at 100 µM in the assay on Bac. subtilis and in the assay on Staph. aureus was 90% throughout. For the same compound, in the assay with Candida albicans (c = 200 μM), the inhibition at 200 µM amounted to 90%.

On to `c1ccc(COc2cc3c(-c4cncn4C4CCc5ccccc54)c[nH]c3cn2)cc1` (stereo not shown) [Example 12], for which the inhibition at 25 µM in the assay on Bac. subtilis (c = 25 μM) came to 100%. Besides, the inhibition at 12.5 µM in the assay with Staph. aureus (c = 12.5 μM) was determined as 80%. Besides, the inhibition at 100 µM in the assay with Candida albicans is 60%.

`CC(C)CCn1cncc1-c1c[nH]c2cnc(OCc3ccccc3)cc12` [Example 5]: the inhibition at 100 µM in the assay with Bac. subtilis was 100%; with Staph. aureus it was 100%; in the assay with Strept. pneumoniae it was 90%; with Candida albicans, 0%. Also, the GI50 with HepG2 and in the assay with A549 was more than 100 µM each time. For the same compound, the inhibition at up to 100 µM turned out to be 38% in the assay with HepG2 and 33% with A549.

Regarding `Fc1ccc(-c2ncn(C3CCCc4ccccc43)c2-c2c[nH]c3cnc(OCc4ccccc4)cc23)cc1` (stereo not shown) [Example 11], the inhibition at 50 µM with Bac. subtilis (c = 50 μM) stood at 80%; with Staph. aureus (c = 50 μM), 60%; in the assay on Candida albicans (c = 50 μM) it was 100%.

On to `c1ccc(COc2cc3c(-c4cncn4C4CCCc5ccccc54)c[nH]c3cn2)cc1` (stereo not shown) [Example 1], for which the inhibition at 100 µM with Bac. subtilis came to 100%; with Staph. aureus, 100%; in the assay with Strept. pneumoniae it was 100%; with Candida albicans it was 0%. Further, the GI50 with A549 was more than 100 µM. For the same compound, the inhibition at up to 100 µM in the assay on A549 came to 22%.

As to `c1ccc(COc2cc3c(-c4cncn4C4CCN(Cc5ccccc5)CC4)c[nH]c3cn2)cc1` [Example 4], the inhibition at 100 µM came to 100% in the assay on Bac. subtilis, 100% in the assay on Staph. aureus, 90% with Strept. pneumoniae and 70% with Candida albicans. For the same compound, the GI50 with HepG2 and with A549 was more than 100 µM in each case. Moreover, the inhibition at up to 100 µM in the assay on HepG2 was 65%; with A549, 41%.

For the compound `Cc1[nH]c2ccccc2c1-c1cncn1CCNC(C)C` [Example 8], the inhibition at 100 µM is 39% in the assay with Bac. subtilis, 82% with Staph. aureus, 0% in the assay with Strept. pneumoniae and 0% with Candida albicans. The GI50 in the assay with HepG2 and in the assay on A549 was more than 100 µM in each case. Besides, the inhibition at up to 100 µM in the assay with HepG2 amounted to 0%; in the assay with A549 it was 10%.

As for `c1ccc(COc2cc3c(-c4cncn4CCc4c[nH]c5ccccc45)c[nH]c3cn2)cc1` [Example 6], the inhibition at 100 µM in the assay on Bac. subtilis amounted to 10%; in the assay with Staph. aureus it was 85%; in the assay on Strept. pneumoniae, 10%; in the assay with Candida albicans it was 0%. The GI50 in the assay with HepG2 and in the assay on A549 was more than 100 µM in each case. For the same compound, the inhibition at up to 100 µM is 17% with HepG2 and 19% in the assay with A549.

With `COc1ccc2[nH]cc(-c3cncn3CCc3ccc(O)cc3)c2c1` [Example 9], the inhibition at 100 µM in the assay with Bac. subtilis was found to be 38%; with Staph. aureus, 25%; in the assay on Strept. pneumoniae, 85%; with Candida albicans, 0%. The GI50 in the assay with HepG2 and in the assay on A549 was more than 100 µM each time. Further, the inhibition at up to 100 µM is 14% in the assay on HepG2 and 31% in the assay with A549.

For `Cc1[nH]c2ccccc2c1-c1cncn1C1CCCc2ccccc21` (stereo not shown) [Example 7], the inhibition at 100 µM in the assay with Bac. subtilis came out at 76%; in the assay on Staph. aureus, 40%; with Strept. pneumoniae, 0%; in the assay with Candida albicans, 0%. Besides, the GI50 in the assay with HepG2 and in the assay on A549 was more than 100 µM each time. Also, the inhibition at up to 100 µM in the assay on HepG2 and in the assay on A549 was 0% throughout.

For the compound `c1ccc(CN2CCC(n3cncc3-c3c[nH]c4ccccc34)CC2)cc1` [Example 3], the inhibition at 100 µM in the assay with Bac. subtilis was determined as 100%; in the assay on Staph. aureus, 100%; in the assay on Strept. pneumoniae, 80%; in the assay on Candida albicans, 60%. For the same compound, the GI50 in the assay on HepG2 and in the assay with A549 was more than 100 µM in each case. Further, the figures for the inhibition at up to 100 µM with HepG2 and in the assay on A549 were 48% and 26%, respectively.

The values above are taken from patent US6699883B1, “Pyrroloimidazole derivatives and their use as medicaments” (Morphochem AG, priority 1999, dated 2004).
